The results in this text go back to patent US11325889B2, “Substituted 3-((3-aminophenyl)amino)piperidine-2,6-dione compounds, compositions thereof, and methods of treatment therewith” (Celgene Corporation, priority 2018, dated 2022).

As a reminder, the DC50 is the midpoint of the concentration-degradation curve.

For this experiment, the target named is T1, AR protein in VCaP cells (Homo sapiens, UniProt P10275).
T1 construct: endogenous in cells; host or cells: VCaP cells
T1 sequence (P10275 1-920): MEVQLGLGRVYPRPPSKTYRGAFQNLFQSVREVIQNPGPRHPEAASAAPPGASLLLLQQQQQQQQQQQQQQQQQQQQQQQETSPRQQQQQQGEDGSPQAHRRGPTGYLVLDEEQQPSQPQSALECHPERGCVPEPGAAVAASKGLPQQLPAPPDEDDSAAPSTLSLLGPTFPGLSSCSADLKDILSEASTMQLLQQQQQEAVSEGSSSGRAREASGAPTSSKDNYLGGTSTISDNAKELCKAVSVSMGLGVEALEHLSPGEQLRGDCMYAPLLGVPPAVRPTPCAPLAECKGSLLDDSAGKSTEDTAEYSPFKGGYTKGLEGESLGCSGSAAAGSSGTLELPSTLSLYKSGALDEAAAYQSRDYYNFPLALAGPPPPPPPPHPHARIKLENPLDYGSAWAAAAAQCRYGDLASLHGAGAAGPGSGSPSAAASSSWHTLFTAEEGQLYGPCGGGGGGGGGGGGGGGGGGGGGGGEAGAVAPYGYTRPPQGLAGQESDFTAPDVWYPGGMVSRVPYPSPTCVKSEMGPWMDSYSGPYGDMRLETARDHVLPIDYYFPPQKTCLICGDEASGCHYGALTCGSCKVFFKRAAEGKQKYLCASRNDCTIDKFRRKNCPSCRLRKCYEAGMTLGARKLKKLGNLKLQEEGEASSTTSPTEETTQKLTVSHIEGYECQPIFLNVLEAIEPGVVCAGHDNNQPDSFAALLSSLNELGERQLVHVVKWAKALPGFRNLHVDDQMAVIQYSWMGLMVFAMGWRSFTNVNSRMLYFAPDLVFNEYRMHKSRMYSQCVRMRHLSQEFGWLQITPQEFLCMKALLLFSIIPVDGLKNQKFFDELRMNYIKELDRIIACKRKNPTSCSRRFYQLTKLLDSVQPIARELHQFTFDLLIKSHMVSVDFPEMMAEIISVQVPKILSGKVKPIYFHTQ
In words: VCAP AR Degradation Assay (AR ELISA, 24 h). It counts as cell-based. The following applies: for Y (lowest measured AR level normalized to DMSO control): AR degradation efficiency; for DC50: concentration of compound when AR level = 50% of DMSO control, read-out: DC50. A digest of the protocol: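 VCaP cells in DMEM with 8% FBS exposed for 24 h at 37° C to a 10-point, 1:3 series (final top concentration […]; 0.1% DMSO control). Lysate AR measured by sandwich ELISA and normalized to DMSO as percent of control. DC50, EC50 and lowest AR level (Y) from four-parameter logistic fit.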
(In general: An ELISA detects its analyte on a solid surface through an enzyme-linked reagent.)

As for `CCc1cc(N2C(=S)N(c3cnc(C#N)c(C(F)(F)F)c3)C(=O)C23CCC3)ccc1OCCC1CCN(CC(=O)Nc2cc(NC3CCC(=O)NC3=O)ccc2F)CC1` (centres unmarked) [Cmpd 56, 2-(4-(2-(4-(7-(6-cyano-5-(trifluoromethyl)pyridin-3-yl)-8-oxo-6-thioxo-5,7-diazaspiro[3.4]octan-5-yl)-2-ethylphenoxy)ethyl)piperidin-1-yl)-N-(5-(2,6-dioxopiperidin-3-ylamino)-2-fluorophenyl)acetamide], the “Y (lowest measured AR level normalized to DMSO control)” value is on record as “* (0<Y<=25%)” and the 50% degradation concentration (DC50) was 100 to 500 nM.
The matching figures for `CCc1cc(N2C(=S)N(c3cnc(C#N)c(C(F)(F)F)c3)C(=O)C2(C)C)ccc1OCCC1(C)CCN(CC(=O)Nc2cc(Cl)cc(NC3CCC(=O)NC3=O)c2)CC1` (centres unmarked) [Cmpd 64, N-(3-chloro-5-(2,6-dioxopiperidin-3-ylamino)phenyl)-2-(4-(2-(4-(3-(6-cyano-5-(trifluoromethyl)pyridin-3-yl)-5,5-dimethyl-4-oxo-2-thioxoimidazolidin-1-yl)-2-ethylphenoxy)ethyl)-4-methylpiperidin-1-yl)acetamide]: “* (0<Y<=25%)” and 100 to 500 nM.
For `CCc1cc(N2C(=S)N(c3cnc(C#N)c(C(F)(F)F)c3)C(=O)C23CCC3)ccc1OCCC1CCN([C@H](C)C(=O)Nc2cc(NC3CCC(=O)NC3=O)ccc2F)CC1` (stereo partly drawn) [Cmpd 86, (2R)-2-(4-(2-(4-(7-(6-cyano-5-(trifluoromethyl)pyridin-3-yl)-8-oxo-6-thioxo-5,7-diazaspiro[3.4]octan-5-yl)-2-ethylphenoxy)ethyl)piperidin-1-yl)-N-(5-(2,6-dioxopiperidin-3-ylamino)-2-fluorophenyl)propanamide], in that order: “* (0<Y<=25%)” and 100 to 500 nM.
For `CCc1cc(N2C(=S)N(c3cnc(C#N)c(C(F)(F)F)c3)C(=O)C2(C)C)ccc1OCC1CCN(CC(=O)Nc2cc(Cl)cc(NC3CCC(=O)NC3=O)c2)CC1` (centres unmarked) [Cmpd 81, N-(3-chloro-5-(2,6-dioxopiperidin-3-ylamino)phenyl)-2-(4-((4-(3-(6-cyano-5-(trifluoromethyl)pyridin-3-yl)-5,5-dimethyl-4-oxo-2-thioxoimidazolidin-1-yl)-2-ethylphenoxy)methyl)piperidin-1-yl)acetamide], in that order: “** (25%<Y<=35%)” and below 100 nM.
In the case of `CC(F)(F)c1cc(N2C(=S)N(c3ccc(C#N)c(C(F)(F)F)c3)C(=O)C2(C)C)ccc1OCCC1CCN(CC(=O)Nc2cc(Cl)cc(NC3CCC(=O)NC3=O)c2)CC1` (centres unmarked) [Cmpd 30, N-(3-chloro-5-(2,6-dioxopiperidin-3-ylamino)phenyl)-2-(4-(2-(4-(3-(4-cyano-3-(trifluoromethyl)phenyl)-5,5-dimethyl-4-oxo-2-thioxoimidazolidin-1-yl)-2-(1,1-difluoroethyl)phenoxy)ethyl)piperidin-1-yl)acetamide], the “Y (lowest measured AR level normalized to DMSO control)” value was “* (0<Y<=25%)” and the DC50 lay in the range of 100 to 500 nM.
The matching figures for `C[C@@H](C(=O)Nc1cccc(NC2CCC(=O)NC2=O)c1)N1CCC(CCOc2ccc(N3C(=S)N(c4cnc(C#N)c(C(F)(F)F)c4)C(=O)C3(C)C)cc2CCF)CC1` (stereo partly drawn) [Cmpd 73, (2S)-2-(4-(2-(4-(3-(6-cyano-5-(trifluoromethyl)pyridin-3-yl)-5,5-dimethyl-4-oxo-2-thioxoimidazolidin-1-yl)-2-(2-fluoroethyl)phenoxy)ethyl)piperidin-1-yl)-N-(3-(2,6-dioxopiperidin-3-ylamino)phenyl)propanamide]: “* (0<Y<=25%)” and below 100 nM.
For `CCc1cc(N2C(=S)N(c3cnc(C#N)c(C(F)(F)F)c3)C(=O)C2(C)C)ccc1OCCC1CCN([C@@H](C)C(=O)Nc2cccc(N[C@H]3CCC(=O)NC3=O)c2)CC1` [Cmpd 46, (S)-2-(4-(2-(4-(3-(6-cyano-5-(trifluoromethyl)pyridin-3-yl)-5,5-dimethyl-4-oxo-2-thioxoimidazolidin-1-yl)-2-ethylphenoxy)ethyl)piperidin-1-yl)-N-(3-((S)-2,6-dioxopiperidin-3-ylamino)phenyl)propanamide], in that order: “* (0<Y<=25%)” and below 100 nM.
